Measurements: US20030225007A1, “Sulfonamide derivatives of 3-substituted imidazol[1,2-d]-1,2,4-thiadiazoles and 3-substituted-[1,2,4] thiadiazolo[4,5-a] benzimidazole as inhibitors of fibrin cross-linking and transglutaminases” (Apotex Inc., priority 2002, published 2003)

What was measured:
[1] = system: platelet-depleted and platelet-rich human plasma clots; experiment: Acceleration of fibrinolysis of platelet-depleted and platelet-rich plasma clots (t-PA lysis); type: biochemical; settings: platelet-depleted and platelet-rich human plasma clots made with varying inhibitor concentrations; lysis with 300 IU/mL t-PA; FIG. 3
Procedure: Platelet rich (platelet count: 150,000-300,000 mm^−3) or platelet-depleted citrated human plasma was prepared from at least three donors. Plasma (0.3 mL), containing 2-4 μg/mL of ^125I-labeled fibrinogen (specific activity approx. 200 μCi/mg, at least 85% clotability, Amersham Pharmacia Biotech UK Ltd.), was clotted by the addition of CaCl2 (6.4 μL) to a final concentration of 50 mM and thrombin (6.2 μL) to a final concentration of 5 units/mL. Solutions of Factor XIIIa inactivators in DMSO were added just prior to the addition of thrombin and CaCl2. In some cases the inactivator was dissolved and added to plasma in water. To these samples, DMSO (3.2 μL) was mixed in to make 1% final concentration. Conversely, water (3.2 μL) was added to clots to which inactivator was added in DMSO. […] The progress of the fibrinolysis was followed by quantitating the amount of radioactivity in a 20 μL aliquot of the lysis buffer at various lysis times. To measure the total amount of radioactivity in the clots taken for lysis, 0.6 mg bovine trypsin was added to each sample at the end of the lysis and the solutions were incubated for 4 hours at 37° C., or until the digestion was complete. An aliquot (20 μL) of the resulting solution was counted in the liquid scintillation counter. Per cent of fibrinolysis was then calculated with a correction for sub-sampling. […]

[2] = system: fibrin cross-linking in human plasma clots; experiment: Inhibition of fibrin cross-linking in plasma clots (125I-fibrinogen, SDS-PAGE); type: biochemical; settings: platelet-depleted and platelet-rich human plasma clots; inactivator at 40, 80 and 160 μM, added before thrombin and CaCl2
Procedure: Citrated human plasma (0.3 mL) containing 2-4 μg/mL of ^125I-labeled fibrinogen (specific activity approx. 200 μCi/mg, at least 85% clotability, Amersham Pharmacia Biotech UK Ltd.) was clotted by the addition of CaCl2 (6.4 μL) to a final concentration of 50 mM and thrombin (6.2 μL) to a final concentration of 5 units/mL. Solutions of Factor XIIIa inactivators in DMSO were added just prior to the addition of thrombin and CaCl2. In some cases the inactivator was dissolved and added to plasma in water. To these samples, DMSO (3.2 μL) was added, to make 1% final concentration. Conversely, water (3.2 μL) was added to clots to which inactivator was added in DMSO. In control samples both DMSO (3.2 μL) and water (3.2 μL) were added in place of the inactivator solution. Typically, only 20 μL of the mixture was withdrawn before clotting (the remainder of the solution was used for the fibrinolysis assay) and incubated at 37° C. for 30 min.
100 μL of 9 M urea containing 40 mM DTT was added and the solutions were incubated at 37° C. until the clots were completely dissolved. The samples were analyzed on SDS-PAGE gels using a standard procedure. The amount of radioactivity in each electrophoretic band was quantitated using a Storm 820 (Molecular Dynamics) autoradiography system after exposing the gel to a Kodak Storage Phosphor Screen. […]

O=C(O)CN(CCCCCCNS(=O)(=O)c1ccccc1[N+](=O)[O-])c1nsc2nccn12 [H / CH2CO2H / 2-NO2-Ph, N-imidazo[1,2-d][1,2,4]thiadiazol-3-yl-N-(6-{[(2-nitrophenyl)sulfonyl]amino}hexyl)glycine]
fibrinolysis of plasma clots [1]: acceleration of fibrinolysis
formation of high molecular weight polymer in plasma clots [2]: inhibits the formation of high molecular weight polymer
